Measurements taken from PubChem BioAssay (NCI).
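Tested at 5 concentrations; 48 h exposure; 96-well plates; endpoints linearly interpolated, else capped at highest concentration. GI50: concentration for 50% inhibition of growth. TGI is the concentration that stops growth completely.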

Assays:
Assay in all cases: DTP human tumour cell line panel, 48 h
CAKI-1 renal = tested on: CAKI-1 renal
EKVX NSCLC = tested on: EKVX NSCLC
HOP-62 NSCLC = tested on: HOP-62 NSCLC
M19-MEL melanoma = tested on: M19-MEL melanoma
OVCAR-8 ovarian = tested on: OVCAR-8 ovarian
SNB-78 CNS = tested on: SNB-78 CNS
SF-539 CNS = tested on: SF-539 CNS
UO-31 renal = tested on: UO-31 renal
HS 578T breast = tested on: HS 578T breast
NCI/ADR-RES ovarian = tested on: NCI/ADR-RES ovarian

## O=C(Nc1nc2ccc([N+](=O)[O-])cc2s1)C(=O)C(C(=O)c1ccncc1)C1OC(=O)c2ccccc21 (centres undefined)
CAKI-1 renal
  TGI: > 100 µM
EKVX NSCLC
  TGI: > 100 µM
HOP-62 NSCLC
  TGI: > 100 µM
M19-MEL melanoma
  TGI: > 100 µM
OVCAR-8 ovarian
  TGI: > 100 µM
SNB-78 CNS
  TGI: > 100 µM

## O=C1C(=O)N(c2nccs2)C(=O)C(=O)C1c1nc2ccccc2s1
CAKI-1 renal
  TGI: > 100 µM
EKVX NSCLC
  TGI: > 100 µM
HOP-62 NSCLC
  TGI: > 100 µM
M19-MEL melanoma
  TGI: > 100 µM
OVCAR-8 ovarian
  TGI: > 100 µM
SF-539 CNS
  TGI: > 100 µM
SNB-78 CNS
  TGI: > 100 µM
UO-31 renal
  TGI: > 100 µM

## S=c1sc2cscc2s1
CAKI-1 renal
  TGI: 31.4 µM
EKVX NSCLC
  TGI: 35.5 µM
HOP-62 NSCLC
  TGI: 74.5 µM
M19-MEL melanoma
  TGI: 34.3 µM
OVCAR-8 ovarian
  TGI: 45.9 µM
SF-539 CNS
  TGI: 65.5 µM
SNB-78 CNS
  TGI: > 100 µM
UO-31 renal
  TGI: 35.6 µM

## O=C(NC1C2CC3CC(C2)CC1C3)/C(Cl)=C1/Sc2ccccc2NC1=O (centres undefined)
CAKI-1 renal
  TGI: > 100 µM
EKVX NSCLC
  TGI: > 100 µM
HOP-62 NSCLC
  TGI: > 100 µM
M19-MEL melanoma
  TGI: > 100 µM
OVCAR-8 ovarian
  TGI: > 100 µM
SF-539 CNS
  TGI: > 100 µM
SNB-78 CNS
  TGI: > 100 µM
UO-31 renal
  TGI: > 100 µM

## OCC(O)C(O)C(O)c1nn(-c2ccccc2)c2nc3cc(Cl)c(Cl)cc3nc12 (centres undefined)
CAKI-1 renal
  TGI: 56.7 µM
EKVX NSCLC
  TGI: > 100 µM
HOP-62 NSCLC
  TGI: > 100 µM
M19-MEL melanoma
  TGI: > 100 µM
OVCAR-8 ovarian
  TGI: > 100 µM
SF-539 CNS
  TGI: 38.5 µM
SNB-78 CNS
  TGI: > 100 µM
UO-31 renal
  TGI: > 100 µM

## O=c1cccccc1[O-].O=c1cccccc1[O-].O=c1cccccc1[O-].[Ce+3]
CAKI-1 renal
  TGI: > 100 µM
EKVX NSCLC
  TGI: > 100 µM
HOP-62 NSCLC
  GI50: 17.4 µM
  TGI: 45.3 µM
OVCAR-8 ovarian
  TGI: 73.6 µM
SF-539 CNS
  GI50: 14.8 µM
  TGI: 58.8 µM
SNB-78 CNS
  GI50: 15.4 µM
  TGI: 63.2 µM
UO-31 renal
  TGI: 84.6 µM

## Cc1ccccc1C(=O)Oc1ccc(OCc2ccccc2)cc1
EKVX NSCLC
  TGI: > 100 µM
HOP-62 NSCLC
  TGI: > 100 µM
M19-MEL melanoma
  TGI: > 100 µM
OVCAR-8 ovarian
  TGI: > 100 µM
SF-539 CNS
  TGI: > 100 µM
SNB-78 CNS
  TGI: > 100 µM
UO-31 renal
  TGI: > 100 µM

## COC12CCC(C(C(=O)c3ccccc3)=C1C(=O)c1ccccc1)C(O)C2 (centres undefined)
CAKI-1 renal
  TGI: > 100 µM
EKVX NSCLC
  TGI: > 100 µM
HOP-62 NSCLC
  TGI: > 100 µM
M19-MEL melanoma
  TGI: > 100 µM
OVCAR-8 ovarian
  TGI: > 100 µM
SF-539 CNS
  TGI: > 100 µM
SNB-78 CNS
  TGI: > 100 µM
UO-31 renal
  TGI: > 100 µM

## CCOC(=O)c1ccc(N2C(=O)Cc3ccccc3C2=O)cc1
EKVX NSCLC
  TGI: > 100 µM
M19-MEL melanoma
  TGI: > 100 µM
OVCAR-8 ovarian
  TGI: > 100 µM
SF-539 CNS
  TGI: > 100 µM
SNB-78 CNS
  TGI: > 100 µM
UO-31 renal
  TGI: > 100 µM

## CC1(C(=O)O)CCOc2ccccc21 (centres undefined)
CAKI-1 renal
  TGI: > 100 µM
EKVX NSCLC
  TGI: > 100 µM
HOP-62 NSCLC
  TGI: > 100 µM
M19-MEL melanoma
  TGI: > 100 µM
OVCAR-8 ovarian
  TGI: > 100 µM
SF-539 CNS
  TGI: > 100 µM
SNB-78 CNS
  TGI: > 100 µM
UO-31 renal
  TGI: > 100 µM

## CCOC(=O)C1=C(Nc2ccc(Br)cc2)OC/C1=N\NC(=O)c1ccccc1O
CAKI-1 renal
  TGI: > 71.1 µM
EKVX NSCLC
  TGI: > 93.9 µM
HOP-62 NSCLC
  TGI: > 65.1 µM
M19-MEL melanoma
  TGI: > 100 µM
OVCAR-8 ovarian
  TGI: > 100 µM
SF-539 CNS
  TGI: > 77.6 µM
SNB-78 CNS
  TGI: > 79.7 µM
UO-31 renal
  TGI: > 50.9 µM

## NCc1c(C(N)=O)ncn1Cc1ccccc1
CAKI-1 renal
  TGI: > 100 µM
EKVX NSCLC
  TGI: > 100 µM
HOP-62 NSCLC
  TGI: > 100 µM
M19-MEL melanoma
  TGI: > 100 µM
OVCAR-8 ovarian
  TGI: > 100 µM
SF-539 CNS
  TGI: > 100 µM
SNB-78 CNS
  TGI: > 100 µM

## CC(=O)[O-].[Zn].c1ccc(/C(=N\Nc2ccccn2)c2ccccn2)cc1
CAKI-1 renal
  TGI: 6.33 µM
EKVX NSCLC
  GI50: 0.0465 µM
  TGI: 2.84 µM
HOP-62 NSCLC
  GI50: 0.591 µM
  TGI: 1.81 µM
M19-MEL melanoma
  TGI: 1.89 µM
OVCAR-8 ovarian
  GI50: 0.0708 µM
  TGI: 2.4 µM
SF-539 CNS
  GI50: 1.43 µM
  TGI: 9.53 µM
SNB-78 CNS
  TGI: 12.5 µM
UO-31 renal
  GI50: 0.332 µM
  TGI: 16.5 µM

## COc1nc2c(nc(N)n2C2OCC(O)C(O)C2O)c(=O)n1C (centres undefined)
CAKI-1 renal
  TGI: > 100 µM
EKVX NSCLC
  TGI: > 100 µM
HOP-62 NSCLC
  TGI: > 100 µM
M19-MEL melanoma
  TGI: > 100 µM
OVCAR-8 ovarian
  TGI: > 100 µM
SF-539 CNS
  TGI: > 100 µM
SNB-78 CNS
  TGI: > 100 µM
UO-31 renal
  TGI: > 100 µM

## O=C(CNc1ccc2c(=S)c3ccccc3[nH]c2c1)Nc1ccccc1-c1ccccc1NC(=O)CNc1ccc2c(=S)c3ccccc3[nH]c2c1
CAKI-1 renal
  TGI: 75.6 µM
EKVX NSCLC
  TGI: 65.6 µM
HOP-62 NSCLC
  TGI: 48.4 µM
HS 578T breast
  TGI: > 77.7 µM
M19-MEL melanoma
  TGI: > 55.5 µM
NCI/ADR-RES ovarian
  TGI: > 63 µM
OVCAR-8 ovarian
  TGI: 55.7 µM
SF-539 CNS
  TGI: 52 µM
SNB-78 CNS
  TGI: 82.9 µM
UO-31 renal
  TGI: 31.4 µM

## CCOC(=O)N1C(c2ccccc2)C=CC(c2ccccc2)N1C(=O)OCC (centres undefined)
CAKI-1 renal
  TGI: > 100 µM
EKVX NSCLC
  TGI: > 100 µM
HOP-62 NSCLC
  TGI: > 100 µM
M19-MEL melanoma
  TGI: > 100 µM
OVCAR-8 ovarian
  TGI: > 100 µM
SF-539 CNS
  TGI: > 100 µM
SNB-78 CNS
  TGI: > 100 µM

## CS/C(c1ccccc1)=[N+](\[O-])Cc1ccccc1
CAKI-1 renal
  TGI: > 100 µM
EKVX NSCLC
  TGI: > 100 µM
HOP-62 NSCLC
  TGI: > 100 µM
M19-MEL melanoma
  TGI: > 100 µM
OVCAR-8 ovarian
  TGI: > 100 µM
SF-539 CNS
  TGI: > 100 µM
SNB-78 CNS
  TGI: > 100 µM
UO-31 renal
  TGI: > 100 µM

## Cc1ccc(C2=C(c3ccc(C)cc3)C(c3ccc(C)cc3)=C(c3ccc(C)cc3)C2=O)cc1
EKVX NSCLC
  TGI: > 100 µM
HOP-62 NSCLC
  TGI: > 100 µM
M19-MEL melanoma
  TGI: > 100 µM
OVCAR-8 ovarian
  TGI: > 100 µM
SF-539 CNS
  TGI: > 100 µM
SNB-78 CNS
  TGI: > 100 µM
UO-31 renal
  TGI: > 100 µM

## CCn1c(=O)c2ccccc2n2c(=O)c3cc4ccccc4cc3nc12
CAKI-1 renal
  TGI: > 100 µM
EKVX NSCLC
  TGI: > 100 µM
HOP-62 NSCLC
  TGI: > 100 µM
M19-MEL melanoma
  TGI: > 100 µM
OVCAR-8 ovarian
  TGI: > 100 µM
SF-539 CNS
  TGI: > 100 µM
SNB-78 CNS
  TGI: > 100 µM
UO-31 renal
  TGI: > 100 µM

## CC(=O)OC1CCC2C(=CCC3C2(C)C(=O)CC2(C)C(C4(C)OC(C(C)C)=CC4=O)C(O)CC32C)C1(C)C (centres undefined)
CAKI-1 renal
  TGI: > 100 µM
EKVX NSCLC
  TGI: > 100 µM
HOP-62 NSCLC
  TGI: > 100 µM
M19-MEL melanoma
  TGI: 47.7 µM
OVCAR-8 ovarian
  TGI: > 100 µM
SF-539 CNS
  TGI: 33.2 µM
SNB-78 CNS
  TGI: > 100 µM
UO-31 renal
  TGI: > 100 µM

## O=C(N/C(=C\c1ccc(/C=C(\NC(=O)c2ccccc2)c2nc3ccccc3s2)cc1)c1nc2ccccc2s1)c1ccccc1
CAKI-1 renal
  TGI: 28 µM
EKVX NSCLC
  TGI: 14.5 µM
HOP-62 NSCLC
  TGI: 32.3 µM
M19-MEL melanoma
  TGI: 15.2 µM
OVCAR-8 ovarian
  TGI: 5.51 µM
SF-539 CNS
  TGI: 4.61 µM
SNB-78 CNS
  TGI: 62.3 µM
UO-31 renal
  TGI: 10.7 µM
